According to PubChem BioAssay (NCI):
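48-hour exposure; five concentrations; linearly interpolated endpoints. TGI: total growth inhibition.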

Experiments:
Assay in all cases: NCI tumour cell line growth inhibition, 48 h
NCI-H522 lung = system: NCI-H522 lung
IGROV1 ovarian = system: IGROV1 ovarian
OVCAR-5 ovarian = system: OVCAR-5 ovarian
UO-31 renal = system: UO-31 renal
KM12 colon = system: KM12 colon
786-0 renal = system: 786-0 renal
RXF 393 renal = system: RXF 393 renal
EKVX NSCLC = system: EKVX NSCLC
SK-OV-3 ovarian = system: SK-OV-3 ovarian
M14 melanoma = system: M14 melanoma
UACC-257 melanoma = system: UACC-257 melanoma
SNB-19 CNS = system: SNB-19 CNS
OVCAR-3 ovarian = system: OVCAR-3 ovarian
BT-549 breast = system: BT-549 breast
TK-10 renal = system: TK-10 renal
SF-268 CNS = system: SF-268 CNS
HCC-2998 colon = system: HCC-2998 colon
SW-620 colon = system: SW-620 colon
MALME-3M melanoma = system: MALME-3M melanoma
CAKI-1 renal = system: CAKI-1 renal

For CC(C)=CCN1c2ccc(Cl)cc2NC(=O)CC1C (stereo not given), the TGI (NCI-H522 lung) was 47.4 µM, the TGI (IGROV1 ovarian) was 62.4 µM and the TGI (OVCAR-5 ovarian) was > 100 µM. For the same molecule, the TGI (UO-31 renal) was > 100 µM, the TGI (KM12 colon) was 68.6 µM and the TGI (786-0 renal) was 34.8 µM. For the same molecule, the TGI (RXF 393 renal) was 76 µM, the TGI (EKVX NSCLC) was 83.5 µM and the TGI (SK-OV-3 ovarian) was > 100 µM. For the same molecule, the TGI (M14 melanoma) was 36.1 µM, the TGI (UACC-257 melanoma) was 47.3 µM and the TGI (SNB-19 CNS) was > 100 µM. For the same molecule, the TGI (OVCAR-3 ovarian) was 36 µM, the TGI (BT-549 breast) was 59.5 µM and the TGI (TK-10 renal) was 87.7 µM. For the same molecule, the TGI (SF-268 CNS) was > 100 µM, the TGI (HCC-2998 colon) was > 100 µM and the TGI (SW-620 colon) was > 100 µM. The TGI (MALME-3M melanoma) was 49.6 µM and the TGI (CAKI-1 renal) was 43.8 µM.

NCCC(=O)N[C@@H](Cc1cc(O)c(O)c(SCC(NC(=O)CC[C@H](N)C(=O)O)C(=O)NCC(=O)O)c1)C(=O)O (stereo not given in full) was tested, and the TGI (NCI-H522 lung) was > 50 µM, the TGI (IGROV1 ovarian) was > 50 µM and the TGI (OVCAR-5 ovarian) was > 50 µM. For the same molecule, the TGI (UO-31 renal) was > 50 µM, the TGI (KM12 colon) was > 50 µM and the TGI (786-0 renal) was > 50 µM. For the same molecule, the TGI (RXF 393 renal) was > 50 µM, the TGI (EKVX NSCLC) was > 50 µM and the TGI (SK-OV-3 ovarian) was > 50 µM. The TGI (M14 melanoma) was > 50 µM, the TGI (UACC-257 melanoma) was > 50 µM and the TGI (SNB-19 CNS) was > 50 µM. The TGI (OVCAR-3 ovarian) was > 50 µM, the TGI (BT-549 breast) was > 50 µM and the TGI (TK-10 renal) was > 50 µM. The TGI (SF-268 CNS) was > 50 µM, the TGI (HCC-2998 colon) was > 50 µM and the TGI (SW-620 colon) was > 50 µM. For the same molecule, the TGI (MALME-3M melanoma) was > 50 µM and the TGI (CAKI-1 renal) was > 50 µM.

In the case of CC(=N\N=C\c1ccccn1)/C(C)=N/N=C(C)/C(C)=N/N=C/c1ccccn1, the TGI (NCI-H522 lung) was > 100 µM, the TGI (IGROV1 ovarian) was > 100 µM and the TGI (OVCAR-5 ovarian) was > 100 µM. For the same molecule, the TGI (UO-31 renal) was > 100 µM, the TGI (KM12 colon) was > 100 µM and the TGI (786-0 renal) was > 100 µM. The TGI (RXF 393 renal) was > 100 µM, the TGI (EKVX NSCLC) was > 100 µM and the TGI (SK-OV-3 ovarian) was > 100 µM. For the same molecule, the TGI (M14 melanoma) was > 100 µM, the TGI (UACC-257 melanoma) was > 100 µM and the TGI (SNB-19 CNS) was > 100 µM. For the same molecule, the TGI (OVCAR-3 ovarian) was > 100 µM, the TGI (BT-549 breast) was > 100 µM and the TGI (TK-10 renal) was > 100 µM. The TGI (SF-268 CNS) was > 100 µM, the TGI (HCC-2998 colon) was > 100 µM and the TGI (SW-620 colon) was > 100 µM. The TGI (MALME-3M melanoma) was > 100 µM and the TGI (CAKI-1 renal) was > 100 µM.

COc1ccc(-n2c(N)c(C#N)c(C#N)c2-c2ccccc2)cc1 was tested, and the TGI (NCI-H522 lung) was > 100 µM, the TGI (IGROV1 ovarian) was > 100 µM and the TGI (OVCAR-5 ovarian) was > 100 µM. The TGI (UO-31 renal) was > 100 µM, the TGI (KM12 colon) was > 100 µM and the TGI (786-0 renal) was > 100 µM. For the same molecule, the TGI (RXF 393 renal) was > 100 µM, the TGI (EKVX NSCLC) was > 100 µM and the TGI (SK-OV-3 ovarian) was > 100 µM. For the same molecule, the TGI (M14 melanoma) was > 100 µM, the TGI (UACC-257 melanoma) was > 100 µM and the TGI (SNB-19 CNS) was > 100 µM. For the same molecule, the TGI (OVCAR-3 ovarian) was > 100 µM, the TGI (BT-549 breast) was > 100 µM and the TGI (TK-10 renal) was > 100 µM. For the same molecule, the TGI (SF-268 CNS) was > 100 µM, the TGI (HCC-2998 colon) was > 100 µM and the TGI (SW-620 colon) was > 100 µM. For the same molecule, the TGI (MALME-3M melanoma) was > 100 µM and the TGI (CAKI-1 renal) was > 100 µM.

In the case of COc1cc(Nc2nc3ccc(C(F)(F)F)cc3nc2C(=O)O)cc(OC)c1OC, the TGI (NCI-H522 lung) was 51.8 µM, the TGI (IGROV1 ovarian) was 66.6 µM and the TGI (OVCAR-5 ovarian) was > 100 µM. It also gave a TGI (UO-31 renal) of 33.8 µM, a TGI (KM12 colon) of 59.4 µM and a TGI (786-0 renal) of 74.6 µM. The TGI (RXF 393 renal) was 54 µM, the TGI (EKVX NSCLC) was 97.2 µM and the TGI (SK-OV-3 ovarian) was > 100 µM. For the same molecule, the TGI (M14 melanoma) was 93.3 µM, the TGI (UACC-257 melanoma) was 43 µM and the TGI (SNB-19 CNS) was > 100 µM. It also gave a TGI (OVCAR-3 ovarian) of 93.5 µM, a TGI (BT-549 breast) of 37.9 µM and a TGI (TK-10 renal) of 62.2 µM. It also gave a TGI (SF-268 CNS) of 46.8 µM, a TGI (HCC-2998 colon) of 34.5 µM and a TGI (SW-620 colon) of 59.9 µM. It also gave a TGI (MALME-3M melanoma) of 88.8 µM and a TGI (CAKI-1 renal) of 61.7 µM.

In the case of Nc1ncnc2c1ncn2[C@H]1CC[C@@H](NO)C1, the TGI (NCI-H522 lung) was > 100 µM, the TGI (IGROV1 ovarian) was > 100 µM and the TGI (OVCAR-5 ovarian) was > 100 µM. For the same molecule, the TGI (UO-31 renal) was > 100 µM, the TGI (KM12 colon) was > 100 µM and the TGI (786-0 renal) was > 100 µM. The TGI (RXF 393 renal) was > 100 µM, the TGI (EKVX NSCLC) was > 100 µM and the TGI (SK-OV-3 ovarian) was > 100 µM. For the same molecule, the TGI (M14 melanoma) was > 100 µM, the TGI (UACC-257 melanoma) was > 100 µM and the TGI (SNB-19 CNS) was > 100 µM. For the same molecule, the TGI (OVCAR-3 ovarian) was > 100 µM, the TGI (BT-549 breast) was > 100 µM and the TGI (TK-10 renal) was > 100 µM. For the same molecule, the TGI (SF-268 CNS) was > 100 µM, the TGI (HCC-2998 colon) was > 100 µM and the TGI (SW-620 colon) was > 100 µM. The TGI (MALME-3M melanoma) was > 100 µM and the TGI (CAKI-1 renal) was > 100 µM.

NS(=O)(=O)c1ccc(Nc2c3ccccc3nc3c(C(=O)NCCO)cccc23)cc1 was tested, and the TGI (NCI-H522 lung) was 0.272 µM, the TGI (IGROV1 ovarian) was 0.45 µM and the TGI (OVCAR-5 ovarian) was 0.358 µM. It also gave a TGI (UO-31 renal) of 0.532 µM, a TGI (KM12 colon) of 0.283 µM and a TGI (786-0 renal) of 0.283 µM. It also gave a TGI (RXF 393 renal) of 0.237 µM, a TGI (EKVX NSCLC) of 0.772 µM and a TGI (SK-OV-3 ovarian) of 0.649 µM. For the same molecule, the TGI (M14 melanoma) was 0.326 µM, the TGI (UACC-257 melanoma) was 0.315 µM and the TGI (SNB-19 CNS) was 0.355 µM. For the same molecule, the TGI (OVCAR-3 ovarian) was 0.318 µM, the TGI (BT-549 breast) was 0.311 µM and the TGI (TK-10 renal) was 0.726 µM. The TGI (SF-268 CNS) was 0.303 µM, the TGI (HCC-2998 colon) was 0.333 µM and the TGI (SW-620 colon) was 0.277 µM. It also gave a TGI (MALME-3M melanoma) of 0.268 µM and a TGI (CAKI-1 renal) of 0.546 µM.

With Cn1/c(=N\N=C(\CNCCO)[C@@H](O)[C@@H]2OC(c3ccccc3)OC[C@H]2O)sc2ccccc21 (stereo not given in full) the TGI (NCI-H522 lung) was 32.7 µM, the TGI (IGROV1 ovarian) was 35 µM and the TGI (OVCAR-5 ovarian) was 40.3 µM. For the same molecule, the TGI (UO-31 renal) was 30.1 µM, the TGI (KM12 colon) was 33.5 µM and the TGI (786-0 renal) was 34.3 µM. It also gave a TGI (RXF 393 renal) of 30.9 µM, a TGI (EKVX NSCLC) of 33.2 µM and a TGI (SK-OV-3 ovarian) of 37.7 µM. For the same molecule, the TGI (M14 melanoma) was 26.5 µM, the TGI (UACC-257 melanoma) was 39 µM and the TGI (SNB-19 CNS) was 26.3 µM. The TGI (OVCAR-3 ovarian) was 32.7 µM, the TGI (BT-549 breast) was 37.2 µM and the TGI (TK-10 renal) was 36.3 µM. The TGI (SF-268 CNS) was 30.5 µM, the TGI (HCC-2998 colon) was 32 µM and the TGI (SW-620 colon) was 37.5 µM. The TGI (MALME-3M melanoma) was 32.3 µM and the TGI (CAKI-1 renal) was 38.6 µM.

Molecule Nc1nc(Nc2ccccc2)sc1C(=O)c1cccs1 has a TGI (NCI-H522 lung) of 25.9 µM, a TGI (IGROV1 ovarian) of 36.3 µM and a TGI (OVCAR-5 ovarian) of 32.1 µM. It also gave a TGI (UO-31 renal) of 36.2 µM, a TGI (KM12 colon) of 14.9 µM and a TGI (786-0 renal) of 28.6 µM. It also gave a TGI (RXF 393 renal) of 20.2 µM, a TGI (EKVX NSCLC) of 31.8 µM and a TGI (SK-OV-3 ovarian) of 90.2 µM. The TGI (M14 melanoma) was 36.2 µM, the TGI (UACC-257 melanoma) was 32.5 µM and the TGI (SNB-19 CNS) was 46.5 µM. The TGI (OVCAR-3 ovarian) was > 28.2 µM, the TGI (BT-549 breast) was 35.7 µM and the TGI (TK-10 renal) was 46.8 µM. The TGI (SF-268 CNS) was 46.6 µM, the TGI (HCC-2998 colon) was 32.6 µM and the TGI (SW-620 colon) was 37.7 µM. The TGI (MALME-3M melanoma) was 37.3 µM and the TGI (CAKI-1 renal) was 62.3 µM.
